The assay concerns individually reexpressed FZDs (1,2,4,5,7,8, and 10). Kind of assay: TopFlash in ΔFZD1–10 HEK293T, panel of individually reexpressed FZDs, Wnt3a-stimulated (collective statements). Conditions: compared with pcDNA+CHIR99021.

Each structure is given as a SMILES string.

Two compounds from PMC11650735, “Challenging Reported Frizzled-Targeting Compounds in Selective Assays Reveals Lack of Functional Inhibition and Claimed Profiles” (ACS Pharmacology & Translational Science, 2024) can be followed below.

Take `O=C(/C=C/c1ccc2c(c1)OCO2)Nc1ccc(-n2cnc3ccccc32)cc1` [SRI35959]: the “FZDs whose reintroduction reduces the compound's potency” value is “FZD1,4, and 7”.

Consider `NC(=O)N1c2ccccc2C=Cc2ccccc21` [carbamazepine], for which the “FZDs whose reintroduction reduces the compound's potency” value is “FZD5 and FZD8”.
